Assay results taken from patent US11629143B2, “HipK4 inhibitors and uses thereof” (Vibliome Therapeutics, LLC, priority 2020, dated 2023).

How the values were obtained:
Assay in all cases: Kinase panel (mobility shift)
Type in all cases: biochemical
[1] = target: EPH-A5 (Homo sapiens, UniProt P54756); conditions: at 5 um
How it was run: (§1)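 Microfluidic mobility-shift readout: product and substrate peaks are resolved by charge, and their fluorescence is compared to give enzyme activity. Enzyme, fluorescent substrate and test compound are reacted, then terminated before chip loading. Values are binned at 5 um: A 95% or greater, B 90%-94%, C 80%-89%.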

[2] = target: T1, EPH-B2 (Homo sapiens, UniProt P29323); conditions: at 5 um
T1 sequence (P29323 19-1055): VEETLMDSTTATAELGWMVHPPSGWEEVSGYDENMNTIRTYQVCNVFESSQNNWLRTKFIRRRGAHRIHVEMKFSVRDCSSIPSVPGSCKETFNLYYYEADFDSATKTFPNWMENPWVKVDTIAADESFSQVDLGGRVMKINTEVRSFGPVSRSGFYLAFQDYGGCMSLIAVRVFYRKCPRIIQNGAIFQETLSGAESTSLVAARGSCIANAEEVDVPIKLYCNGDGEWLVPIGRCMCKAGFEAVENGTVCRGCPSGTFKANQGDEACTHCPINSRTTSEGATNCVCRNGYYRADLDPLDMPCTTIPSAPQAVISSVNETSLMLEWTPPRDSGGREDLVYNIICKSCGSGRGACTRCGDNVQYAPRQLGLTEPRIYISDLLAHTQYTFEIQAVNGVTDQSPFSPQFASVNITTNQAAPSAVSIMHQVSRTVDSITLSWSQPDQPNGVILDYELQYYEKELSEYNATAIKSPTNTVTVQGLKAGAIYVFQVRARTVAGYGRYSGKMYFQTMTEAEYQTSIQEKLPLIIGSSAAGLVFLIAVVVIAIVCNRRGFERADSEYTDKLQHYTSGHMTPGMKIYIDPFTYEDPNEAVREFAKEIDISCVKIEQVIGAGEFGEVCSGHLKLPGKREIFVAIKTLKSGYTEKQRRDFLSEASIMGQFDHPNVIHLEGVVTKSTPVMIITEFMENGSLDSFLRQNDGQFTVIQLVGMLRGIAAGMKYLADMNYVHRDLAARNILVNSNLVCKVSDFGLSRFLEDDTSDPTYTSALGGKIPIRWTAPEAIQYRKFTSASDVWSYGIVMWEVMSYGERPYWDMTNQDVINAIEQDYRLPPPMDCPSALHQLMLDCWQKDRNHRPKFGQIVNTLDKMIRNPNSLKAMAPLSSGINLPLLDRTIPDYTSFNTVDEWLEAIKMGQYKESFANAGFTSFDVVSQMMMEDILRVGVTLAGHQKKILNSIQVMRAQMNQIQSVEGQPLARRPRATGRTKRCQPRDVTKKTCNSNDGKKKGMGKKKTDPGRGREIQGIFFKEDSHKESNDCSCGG
How it was run: as §1

[3] = target: T2, MER (Homo sapiens, UniProt Q12866)
T2 sequence (Q12866 21-999): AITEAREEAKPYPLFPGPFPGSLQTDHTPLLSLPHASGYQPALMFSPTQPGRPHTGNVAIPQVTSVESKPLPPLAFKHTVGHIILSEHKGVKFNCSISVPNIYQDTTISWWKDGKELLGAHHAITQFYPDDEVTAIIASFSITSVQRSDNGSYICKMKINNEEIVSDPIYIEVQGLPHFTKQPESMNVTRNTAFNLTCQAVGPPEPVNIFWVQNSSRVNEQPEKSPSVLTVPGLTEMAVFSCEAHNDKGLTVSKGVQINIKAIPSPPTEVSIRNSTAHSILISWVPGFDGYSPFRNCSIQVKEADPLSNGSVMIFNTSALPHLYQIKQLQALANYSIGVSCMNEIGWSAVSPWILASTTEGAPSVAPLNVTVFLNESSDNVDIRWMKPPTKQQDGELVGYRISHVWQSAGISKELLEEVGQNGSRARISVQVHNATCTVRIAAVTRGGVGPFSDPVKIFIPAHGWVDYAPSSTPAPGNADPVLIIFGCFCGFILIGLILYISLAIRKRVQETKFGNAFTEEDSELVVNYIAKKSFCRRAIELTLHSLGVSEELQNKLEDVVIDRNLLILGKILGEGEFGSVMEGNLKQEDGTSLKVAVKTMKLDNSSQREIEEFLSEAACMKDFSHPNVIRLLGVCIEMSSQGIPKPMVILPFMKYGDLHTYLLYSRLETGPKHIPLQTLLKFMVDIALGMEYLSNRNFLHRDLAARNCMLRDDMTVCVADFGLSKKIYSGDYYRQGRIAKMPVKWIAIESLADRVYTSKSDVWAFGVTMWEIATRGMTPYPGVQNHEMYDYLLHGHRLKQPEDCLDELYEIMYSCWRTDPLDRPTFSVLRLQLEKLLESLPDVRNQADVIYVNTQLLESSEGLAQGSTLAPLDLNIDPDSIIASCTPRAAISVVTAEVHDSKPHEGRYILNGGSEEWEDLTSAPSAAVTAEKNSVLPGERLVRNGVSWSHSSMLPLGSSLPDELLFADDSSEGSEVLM
How it was run: as §1

[4] = target: RIPK2 (Homo sapiens, UniProt O43353)
RIPK2, sequence (O43353 whole entry, species assumed): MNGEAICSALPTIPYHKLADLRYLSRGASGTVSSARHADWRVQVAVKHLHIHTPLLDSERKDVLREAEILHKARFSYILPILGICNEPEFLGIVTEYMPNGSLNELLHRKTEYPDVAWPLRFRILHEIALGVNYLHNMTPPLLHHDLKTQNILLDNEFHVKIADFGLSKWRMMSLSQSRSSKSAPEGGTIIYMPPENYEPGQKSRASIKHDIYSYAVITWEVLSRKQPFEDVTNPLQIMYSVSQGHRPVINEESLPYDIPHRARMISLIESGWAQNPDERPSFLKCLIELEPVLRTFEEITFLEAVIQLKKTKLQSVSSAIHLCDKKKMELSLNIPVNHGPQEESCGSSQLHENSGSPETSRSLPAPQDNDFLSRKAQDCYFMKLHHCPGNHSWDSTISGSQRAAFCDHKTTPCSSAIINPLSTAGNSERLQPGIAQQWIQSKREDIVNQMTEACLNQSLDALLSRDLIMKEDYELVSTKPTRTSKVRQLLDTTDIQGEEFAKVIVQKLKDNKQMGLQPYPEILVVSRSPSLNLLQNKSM
How it was run: as §1

[5] = target: SRC (Homo sapiens, UniProt P12931)
SRC, sequence (P12931 whole entry, species assumed): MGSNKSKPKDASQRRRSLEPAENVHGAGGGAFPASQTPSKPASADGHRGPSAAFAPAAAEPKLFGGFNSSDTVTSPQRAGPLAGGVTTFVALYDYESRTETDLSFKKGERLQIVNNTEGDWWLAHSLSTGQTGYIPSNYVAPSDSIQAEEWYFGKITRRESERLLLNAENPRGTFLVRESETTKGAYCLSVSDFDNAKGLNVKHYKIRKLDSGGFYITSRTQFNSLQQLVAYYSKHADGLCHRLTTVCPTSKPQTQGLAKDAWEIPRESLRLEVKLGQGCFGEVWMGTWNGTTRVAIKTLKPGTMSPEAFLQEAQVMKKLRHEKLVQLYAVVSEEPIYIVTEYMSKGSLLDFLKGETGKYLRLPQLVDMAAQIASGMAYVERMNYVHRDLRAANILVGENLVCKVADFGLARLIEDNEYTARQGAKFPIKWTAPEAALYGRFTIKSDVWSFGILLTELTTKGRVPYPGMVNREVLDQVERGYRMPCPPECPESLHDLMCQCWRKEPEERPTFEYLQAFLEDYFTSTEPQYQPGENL
How it was run: as §1

EPH-A5, sequence (P54756 25-1037, species assumed): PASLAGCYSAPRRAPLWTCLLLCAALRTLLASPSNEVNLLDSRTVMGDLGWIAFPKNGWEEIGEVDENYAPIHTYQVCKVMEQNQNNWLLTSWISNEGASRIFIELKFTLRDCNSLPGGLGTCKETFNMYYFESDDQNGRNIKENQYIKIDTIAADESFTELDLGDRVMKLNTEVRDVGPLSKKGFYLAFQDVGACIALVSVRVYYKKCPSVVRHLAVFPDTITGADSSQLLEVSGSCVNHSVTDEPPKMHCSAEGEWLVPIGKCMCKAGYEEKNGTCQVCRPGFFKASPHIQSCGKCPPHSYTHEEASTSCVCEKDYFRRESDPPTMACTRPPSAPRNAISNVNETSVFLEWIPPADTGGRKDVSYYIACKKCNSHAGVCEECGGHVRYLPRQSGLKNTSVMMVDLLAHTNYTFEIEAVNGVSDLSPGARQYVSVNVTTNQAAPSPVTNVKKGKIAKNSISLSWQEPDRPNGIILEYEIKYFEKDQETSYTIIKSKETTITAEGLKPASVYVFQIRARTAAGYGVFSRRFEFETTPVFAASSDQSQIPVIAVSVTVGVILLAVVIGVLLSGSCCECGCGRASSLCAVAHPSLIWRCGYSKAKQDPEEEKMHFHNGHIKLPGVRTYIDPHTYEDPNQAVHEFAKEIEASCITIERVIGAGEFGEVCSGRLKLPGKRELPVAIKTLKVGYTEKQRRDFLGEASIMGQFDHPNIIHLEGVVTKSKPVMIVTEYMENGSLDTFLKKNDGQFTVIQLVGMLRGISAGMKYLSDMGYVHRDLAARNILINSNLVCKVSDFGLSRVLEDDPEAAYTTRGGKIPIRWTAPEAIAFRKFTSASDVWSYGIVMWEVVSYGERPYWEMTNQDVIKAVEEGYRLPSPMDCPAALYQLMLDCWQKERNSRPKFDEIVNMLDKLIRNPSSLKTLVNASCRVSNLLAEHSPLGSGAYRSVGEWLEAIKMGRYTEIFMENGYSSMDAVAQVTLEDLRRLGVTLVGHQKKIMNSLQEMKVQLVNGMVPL

SMILES | inhibition of kinase activity, EPH-A5 [1] | inhibition of kinase activity, EPH-B2 [2] | inhibition at 5 µM [3] [%] | inhibition at 5 µM [4] [%] | inhibition at 5 µM [5] [%]
CNC(=O)c1cc(Oc2ccc(NC(=O)c3nc(C4CC4)oc3-c3ccc(F)cc3)cc2F)ccn1 [Compound 26] | C (C=80%-89% at 5 um) | C (C=80%-89% at 5 um) | 80 to 89 | 80 to 89 | 50 to 79
CNC(=O)c1cc(Oc2ccc(NC(=O)c3nc(COC)oc3-c3ccc(F)cc3)cc2F)ccn1 [Compound 30] | C (C=80%-89% at 5 um) | B (B=90%-94% at 5 um) | 80 to 89 | 80 to 89 | 50 to 79
CNC(=O)c1cc(Oc2ccc(NC(=O)c3nc(OC4CC4)oc3-c3ccc(F)cc3)cc2F)ccn1 [Compound 32] | D (category D for 50-79) | D (category D for 50-79) | 80 to 89 | 50 to 79 | 50 to 79
CNC(=O)c1ccc(Oc2ccc(NC(=O)c3nc(Cl)oc3-c3ccc(F)cc3)c(F)c2)cn1 [Compound 36] | E (category E is less than 50%) | E (category E is less than 50%) | < 50 | 50 to 79 | < 50
CNC(=O)c1cc(Oc2ccc(NC(=O)c3nc(OCC(F)(F)F)oc3-c3ccc(F)cc3)cc2F)ccn1 [Compound 38] | E (category E is less than 50%) | E (category E is less than 50%) | 80 to 89 | 50 to 79 | 50 to 79
COc1nc(C(=O)Nc2ccc(Oc3ccnc(C(=O)NC4COC4)c3)c(F)c2)c(-c2ccc(F)cc2)o1 [Compound 39] | E (category E is less than 50%) | E (category E is less than 50%) | < 50 | 50 to 79 | < 50
CSc1nc(C(=O)Nc2ccc(Oc3ccnc(C(=O)NCC(F)(F)F)c3)c(F)c2)c(-c2ccc(F)cc2)o1 [Compound 40] | E (category E is less than 50%) | E (category E is less than 50%) | < 50 | < 50 | < 50
CSc1nc(C(=O)Nc2ccc(Oc3ccnc(C(=O)NCCN(C)C)c3)c(F)c2)c(-c2ccc(F)cc2)o1 [Compound 41] | D (category D for 50-79) | D (category D for 50-79) | 50 to 79 | 80 to 89 | < 50
CSc1nc(C(=O)Nc2ccc(Oc3ccnc(C(=O)NC4CCN(C)CC4)c3)c(F)c2)c(-c2ccc(F)cc2)o1 [Compound 42] | E (category E is less than 50%) | E (category E is less than 50%) | < 50 | 50 to 79 | < 50
COc1nc(C(=O)Nc2ccc(Oc3ccnc(C(=O)NCC(F)(F)F)c3)c(F)c2)c(-c2ccc(F)cc2)o1 [Compound 43] | E (category E is less than 50%) | E (category E is less than 50%) | < 50 | < 50 | < 50

Other lines, results leading:

inhibition of kinase activity, EPH-A5 [1] | inhibition of kinase activity, EPH-B2 [2] | inhibition at 5 µM [3] [%] | inhibition at 5 µM [4] [%] | inhibition at 5 µM [5] [%] | SMILES
E (category E is less than 50%) | E (category E is less than 50%) | < 50 | < 50 | < 50 | CSc1nc(C(=O)Nc2ccc(Oc3ccnc(C(=O)NC4CNC4)c3)c(F)c2)c(-c2ccc(F)s2)o1 [Compound 27]
E (category E is less than 50%) | E (category E is less than 50%) | < 50 | < 50 | < 50 | CSc1nc(C(=O)Nc2ccc(Oc3ccnc(C(=O)NC4COC4)c3)c(F)c2)c(-c2ccc(F)s2)o1 [Compound 28]
E (category E is less than 50%) | E (category E is less than 50%) | 50 to 79 | 80 to 89 | < 50 | CSc1nc(C(=O)Nc2ccc(Oc3ccnc(C(=O)NC4CNC4)c3)c(F)c2)c(-c2ccc(F)cc2)o1 [Compound 29]
E (category E is less than 50%) | D (category D for 50-79) | < 50 | 50 to 79 | < 50 | CSc1nc(C(=O)Nc2ccc(Oc3ccnc(C(=O)NC4COC4)c3)c(F)c2)c(-c2ccc(F)cc2)o1 [Compound 31]
E (category E is less than 50%) | E (category E is less than 50%) | < 50 | 50 to 79 | < 50 | [2H]C([2H])([2H])NC(=O)c1cc(Oc2ccc(NC(=O)c3nc(SC)oc3-c3ccc(F)c(F)c3)cc2F)ccn1 [Compound 33]
C (C=80%-89% at 5 um) | C (C=80%-89% at 5 um) | 90 to 94 | 50 to 79 | 80 to 89 | CNC(=O)c1cc(Oc2ccc(NC(=O)c3nc(SC(C)C)oc3-c3ccc(F)cc3)cc2F)ccn1 [Compound 34]
E (category E is less than 50%) | D (category D for 50-79) | < 50 | 50 to 79 | < 50 | [2H]C([2H])([2H])NC(=O)c1cc(Oc2ccc(NC(=O)c3nc(SC)oc3-c3ccc(F)s3)cc2F)ccn1 [Compound 35]
E (category E is less than 50%) | E (category E is less than 50%) | < 50 | < 50 | < 50 | CSc1nc(C(=O)Nc2ccc(Oc3ccnc(C(=O)NC4COC4)c3)c(F)c2)c(-c2ccc(F)c(F)c2)o1 [Compound 37]
